Tests used:
Assay in all cases: relative viability (nuclei count vs DMSO), 5 days (fraction); higher = more cells survive
[1] = compound: Nc1ccccc1NC(=O)c1ccc(CNC(=O)OCc2cccnc2)cc1 [Entinostat] + Cc1nc(NC(=O)N2CCC[C@H]2C(N)=O)sc1-c1ccnc(C(C)(C)C(F)(F)F)c1 [Alpelisib] (partner 2 µM)
Summary of the method: (§1)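 Medians of duplicate plates are given as relative viability. That measure is the nuclei count in treated wells divided by the count in vehicle wells. Counts were taken on 4× images of lung cancer cell lines in 1536-well plates, 5 days after pin-tool dosing the day after seeding with one drug alone or a fixed anchor-drug dose plus five library-drug doses (not always all listed) in √10 steps.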

[2] = compound: C1COCCN1C2=NC(=NC3=C2OC4=C3C=CC=N4)C5=CC(=CC=C5)NC(=O)C6=CN=C(C=C6)N + C[C@]1(O)C[C@@H](c2nc(-c3ccc4ccc(-c5ccccc5)nc4c3)c3c(N)nccn32)C1 [Linsitinib] (partner 1 µM)
Summary of the method: as §1

[3] = compound: Nc1ccccc1NC(=O)c1ccc(CNC(=O)OCc2cccnc2)cc1 [Entinostat] + COc1cc2c(Oc3ccc(NC(=O)C4(C(=O)Nc5ccc(F)cc5)CC4)cc3F)ccnc2cc1OCCCN1CCOCC1 [Foretinib] (partner 0.25 µM)
Summary of the method: as §1

[4] = compound: CN1CCC(CNc2ccc3ncc(-c4cccc(OC(F)(F)F)c4)n3n2)CC1 [SGI-1776] + CC1(C)CCC(c2ccc(Cl)cc2)=C(CN2CCN(c3ccc(C(=O)NS(=O)(=O)c4ccc(N[C@H](CCN5CCOCC5)CSc5ccccc5)c(S(=O)(=O)C(F)(F)F)c4)cc3)CC2)C1 [Navitoclax] (partner 0.5 µM)
Summary of the method: as §1

| Cell Line | relative viability ([1]; first compound 0.02 µM) | relative viability ([1]; first compound 0.06325 µM) | relative viability ([1]; first compound 0.2 µM) | relative viability ([1]; first compound 0.6325 µM) | relative viability ([1]; first compound 2 µM) | relative viability ([2]; first compound 0.02 µM) | relative viability ([2]; first compound 0.06325 µM) | relative viability ([2]; first compound 0.2 µM) | relative viability ([2]; first compound 0.6325 µM) | relative viability ([2]; first compound 2 µM) | relative viability ([3]; first compound 0.02 µM) | relative viability ([3]; first compound 0.06325 µM) | relative viability ([3]; first compound 0.2 µM) | relative viability ([3]; first compound 0.6325 µM) | relative viability ([3]; first compound 2 µM) | relative viability ([4]; first compound 0.08 µM) | relative viability ([4]; first compound 0.8 µM) | relative viability ([4]; first compound 2.53 µM) | relative viability ([4]; first compound 8 µM) |
| --- | --- | --- | --- | --- | --- | --- | --- | --- | --- | --- | --- | --- | --- | --- | --- | --- | --- | --- | --- |
| LOU-NH91 | 0.701 | 0.747 | 0.718 | 0.592 | 0.605 | 0.893 | 0.998 | 0.989 | 0.92 | 0.769 | 0.937 | 0.984 | 0.919 | 0.844 | 0.779 | 0.747 | 0.744 | 0.698 | 0.445 |
| NCI-H1793 | 0.584 | 0.79 | 0.583 | 0.621 | 0.388 | 0.953 | 0.845 | 0.834 | 0.911 | 0.475 | 0.678 | 0.753 | 0.782 | 0.472 | 0.326 | 0.358 | 0.52 | 0.482 | 0.31 |
| NCI-H322M | 0.817 | 0.826 | 0.738 | 0.866 | 0.675 | 0.817 | 0.981 | 0.884 | 0.924 | 0.759 | 0.978 | 1.16 | 1.15 | 0.993 | 0.854 | 1.28 | 1.25 | 1.15 | 1.12 |
| PC-3 [JPC-3] | 0.98 | 0.929 | 0.829 | 0.667 | 0.463 | 0.994 | 0.969 | 0.969 | 0.918 | 0.908 | 0.988 | 0.977 | 0.871 | 0.732 | 0.41 | 0.704 | 0.767 | 0.862 | 0.699 |
| EPLC-272H | 0.955 | 0.998 | 0.795 | 0.526 | 0.38 | 1.27 | 1.07 | 1.12 | 1.01 | 0.721 | 0.684 | 0.783 | 0.512 | 0.243 | 0.223 | 1.15 | 1.15 | 1.25 | 0.969 |
| A-427 | 1.01 | 1.1 | 1.05 | 0.943 | 0.845 | 1.08 | 1.14 | 1.08 | 0.901 | 0.673 | 1.2 | 1.16 | 1.06 | 1 | 0.811 | 1.03 | 0.957 | 0.953 | 1.03 |
